PMC3057018, “Inhibition of Recombinant D-Amino Acid Oxidase from Trigonopsis variabilis by Salts” (Enzyme Research, 2011)

Experiments:
[1] = target: T1, TvDAAO (recombinant His-tagged D-amino acid oxidase from Trigonopsis variabilis) (Trigonopsis variabilis, UniProt Q99042); test: DNPH end-point assay of pyruvate at […] nm; format: biochemical; set-up: gene DAO1; N-terminal hexahistidine tag, expressed in E. coli mainly as apoenzyme, metal-chelate purified, holoenzyme reconstituted with FAD; details: FAD added, potassium phosphate pH 8.0, 30 °C
[2] = target: T1, TvDAAO (recombinant His-tagged D-amino acid oxidase from Trigonopsis variabilis); test: intrinsic tryptophan fluorescence (excitation […] nm) of reconstituted holoenzyme with NaCl; format: binding; set-up: gene DAO1; N-terminal hexahistidine tag, expressed in E. coli mainly as apoenzyme, metal-chelate purified, holoenzyme reconstituted with FAD; details: 25 °C; FAD dissociation by NaCl followed indirectly; holoenzyme reconstituted with 5-fold FAD; noncovalent
[3] = target: T1, TvDAAO (recombinant His-tagged D-amino acid oxidase from Trigonopsis variabilis); test: biochemical; set-up: gene DAO1

T1 sequence (Q99042 whole entry): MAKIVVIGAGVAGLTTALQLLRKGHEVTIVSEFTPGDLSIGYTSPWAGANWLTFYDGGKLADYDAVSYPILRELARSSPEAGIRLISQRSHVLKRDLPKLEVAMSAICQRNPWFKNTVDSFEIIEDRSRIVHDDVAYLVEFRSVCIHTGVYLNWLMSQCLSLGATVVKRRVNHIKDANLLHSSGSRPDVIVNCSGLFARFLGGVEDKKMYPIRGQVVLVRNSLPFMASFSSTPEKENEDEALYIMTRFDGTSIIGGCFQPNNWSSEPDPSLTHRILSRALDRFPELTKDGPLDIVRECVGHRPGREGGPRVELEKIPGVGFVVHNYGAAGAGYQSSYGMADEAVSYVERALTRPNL

## C[C@@H](N)C(=O)O [D-alanine]
[1]
  DNPH end-point assay of pyruvate at 450 nm: measured the release of α-ketoacid from D-alanine during the reaction

## Cc1cc2nc3c(=O)[nH]c(=O)nc-3n(C[C@H](O)[C@H](O)[C@H](O)COP(=O)(O)OP(=O)(O)OC[C@H]3O[C@@H](n4cnc5c(N)ncnc54)[C@H](O)[C@@H]3O)c2cc1C [FAD]
[2]
  intrinsic tryptophan fluorescence (excitation 295 nm) of reconstituted holoenzym: Such an effect may be related to the loss of cofactor FAD

## Cl [NaCl]
[3]
  Ki: 85 mM
